What all share (format): in vivo
The subject of series [1] is Common Straight Swift Butterfly (Parnara guttata). The experiment in a line: Control test on common straight swift butterfly of paddy rice, powder spray, number of insects after 20 days (Test Example 9). The note with it: 20 gai/10a; 20 days after spraying. From the text: (§1) Control Test on Common Straight Swift Butterfly (Parnara guttata) and Sheath Blight (Rhizoctonia solani) of Paddy Rice
(§2) A powder of a prescribed amount was sprayed on rice (cultivar: koshihikari) after 70 days from the transplantation (middle of May) Leaves on which Parnara guttata was parasitic before spraying were eliminated. After 20 days from spraying, the number of insects was examined for 100 stumps in each plot. Furthermore, 7 days before spraying, Rhizoctonia solani cultured on a bran medium was inoculated into the base of the plant. After 30 days from spraying, the number of infected stumps was examined for 100 stumps in each plot and the rate of infected stumps was calculated. In the Table, gai represents the amount of active ingredients (g).

Series [2] relates to Powdery Mildew (Sphaerotheca fuliginea). The experiment in a line: Control test on powdery mildew of cucumbers, spray, control value from severity index. On the procedure:
(§3) Insecticidal Test on Cucumber Moth (Diaphania indica) and Control Test on Powdery Mildew (Sphaerotheca fuliginea) of Cucumbers
(§4) A liquid chemical which was prepared to the prescribed concentration was sufficiently sprayed on cucumbers (cultivar: sagami-hanpaku) cultured in a greenhouse. After 7 days from spraying, leaves were cut off and put into a plastic cup (diameter: 10 cm, height: 10 cm) along with 5 of second-stage larvae of Diaphania indica, and the mortality was examined 4 days thereafter. Furthermore, 1 day after spraying, the leaves of cucumbers which were previously arranged to be infected by pathogen were uniformly wiped with Sphaerotheca fuliginea thereon using a paintbrush for inoculation and examined after 10 days thereafter. The area occupied by lesion per leaf of cucumber was examined in accordance with the following index, and the control value was calculated from the average severity index of each plot according to the following equation (two replications).
Severity Index • 0: No lesion • 1: Lesion area was not more than 5% • 2: Lesion area was from 6 to 25% • 3: Lesion area was from 26 to 50% • 4: Lesion area was not less than 51% Control Value=(1−average severity in the treated plot/average severity in the untreated plot)×100

Series [3] concerns Clubroot (Plasmodiophora brassicae). The experiment in a line: Control test on clubroot of cabbage, soil treatment, control value after 60 days. The note with it: 60 days after treatment. On the procedure:
(§5) Control Test on Turnip Moth (Agrotis segetum) and Clubroot (Plasmodiophora brassicae) of Cabbage due to Soil Treatment
(§6) A powder in a prescribed amount was mixed to soil and cabbages (cultivar: shiki-kaku) cultured on a cell medium were planted out. After 7 days from the treatment, the number of infected stumps due to Agrotis segetum was examined and the rate of infected stumps was calculated. Furthermore, after 60 days from the treatment, stumps were picked out, and lesion formation of Plasmodiophora brassicase was examined according to the degrees of severity. The control value was calculated from the average severity index of each plot according to the following equation. In the Table, gai represents the amount of active ingredients (g).
Severity Index • 0: No clubroot attached • 1: Clubroot was attached at a portion of from 1 to 25% of the whole root • 2: Clubroot was attached at a portion of from 25 to 50% of the whole root • 3: Clubroot was attached at a portion of from 50 to 75% of the whole root • 4: Clubroot was attached at a portion of from 75% or more of the whole root Control Value=(1−average severity in the treated plot/average severity in the untreated plot)×100

Series [4] relates to Oriental Fruit Moth (Grapholita molesta). The series is described as follows: Control test on oriental fruit moth of pear, spray, rate of infected fruit after 40 days. The note with it: 40 days after spraying. On the procedure:
(§7) Control Test on Oriental Fruit Moth (Grapholita molesta) and Scab (Venturia nashicola) of Pear
(§8) A liquid chemical which was prepared to the prescribed concentration was sufficiently sprayed on 17-year-old pears (cultivar: Hosui) (early June). After 40 days from spraying, the number of infected fruits due to Grapholita molesta was examined for all fruit in the plot, and the rate of infected fruit was calculated. Furthermore, after 14 days from spraying, infection of Venturia nashicola was examined by the degrees for optional 200 leaves in the plot and the severity index was calculated according to the following equation. Severity index=Z(number of infected leaves by the degrees×index)×100/(number of examined leaves×5)

Series [5] has as its system Scab (Venturia nashicola). The series is described as follows: Control test on scab of pear, spray, severity index after 14 days. The conditions noted are these: 14 days after spraying. On the procedure: as §7, §8
Series [6] concerns Rice Blast (Pyricularia oryzae). The conditions noted are these: in vivo.
In series [7] the test system is Turnip Moth (Agrotis segetum). The experiment in a line: Control test on turnip moth of cabbage, soil treatment, rate of infected stumps after 7 days. The conditions noted are these: 7 days after treatment. On the procedure: as §5, §6
Series [8] has as its system Sheath Blight (Rhizoctonia solani). The experiment in a line: Control test on sheath blight of paddy rice, powder spray, rate of infected stumps after 30 days. The conditions noted are these: 20 gai/10a; 30 days after spraying.
From the text: as §1, §2

The test system of series [9] is Cucumber Moth (Diaphania indica). The experiment in a line: Insecticidal test on cucumber moth, sprayed cucumber leaves, mortality. The conditions noted are these: for Diaphania indica Mortality (%): 10 ppm. On the procedure:
as §3, §4

In series [10] the test system is Common Straight Swift Butterfly (Parnara guttata). The experiment in a line: Control test on common straight swift butterfly of paddy rice, powder spray, number of insects after 20 days (Test Example 8). The conditions noted are these: 20 gai/10a; 20 days after spraying.
In series [11] the test system is Tiger Moth (Trichoplusia ni). The series is described as follows: Insecticidal test on tiger moth, cabbage leaf dip, mortality after 6 days. The note with it: 0.5 ppm; 6 days after treatment. On the procedure: Insecticidal Test on Tiger Moth (Trichoplusia ni)
Cut leaves of cabbages (cultivar: shiki-kaku) were immersed in a liquid chemical which was diluted and prepared to the prescribed concentration for 30 seconds, air-dried, and then put into a plastic vessel having a diameter of 9 cm. Each of 10 second-stage insects of Trichoplusia ni was inoculated and the resulting vessel was allowed to stand in an isothermal chamber maintained at 25 degree centigrade. After 6 days from the treatment, the number of surviving insects was examined and the mortality was calculated (two replications of 10 insects per plot).

For series [12], the system named is Resistant Cotton Melon Aphid (Aphis gossypii). The note with it: 3 ppm, foliar spray on cucumber, 5 days after spraying.
The subject of series [13] is Small Brown Planthopper (Laodelphax striatellus). The series is described as follows: Insecticidal test on small brown planthopper, sprayed rice seedlings, mortality after 6 days. The conditions noted are these: 3 ppm, sprayed rice seedlings, 6 days after treatment. On the procedure:
Insecticidal Test on Small Brown Planthopper (Laodelphax striatellus)
A liquid chemical which was diluted and prepared to the prescribed concentration was sprayed on rice seedlings (cultivar: koshihikari), air-dried, and then 10 three-stage insects of Laodelphax striatellus were put into a glass test tube having a diameter of 3 cm and a height of 10 cm along with the seedlings. The test tube was cotton plugged. After 6 days from the treatment, the number of surviving insects was examined and the mortality was calculated (two replications of 10 insects per plot).

Series [14] deals with Green Peach Aphid (Myzus persicae). The note with it: 3 ppm, foliar spray on eggplant, 5 days after spraying.
Series [15] concerns 2-spotted Spider Mite (Tetranychus urticae). The experiment in a line: Insecticidal test on 2-spotted spider mite, kidney bean leaf disc with eggs, hatchability of larvae after 6 days. The note with it: 50 ppm; 6 days after spraying. On the procedure:
Insecticidal Test on 2-spotted Spider Mite (Tetranychus urticae)
A plastic cup having a diameter of 8 cm was filled with water and covered by a lid with a hole having a diameter of 1 cm. Absorbent cotton was put on the top of the lid and dropped into water from the lid such that the absorbent cotton was always in a wet state due to a capillary phenomenon. A leaf disc having a diameter of 2 cm was prepared with primary leaves of kidney beans (cultivar: Green top) and placed on the aforementioned absorbent cotton. 4 adult female insects of Tetranychus urticae were inoculated thereon. Next day, the adult female insects were removed, and then the number of insect egg was examined. A liquid chemical which was prepared to the prescribed concentration was sprayed by using a vertical sprayer. After spraying, the resulting cup was allowed to stand in an isothermal chamber maintained at 25 degree centigrade. After 6 days from spraying, the number of hatched larvae that survived on the leaf disc was examined and the hatchability of larvae was calculated (two replications of one concentration per chemical).

As for `Cc1cc(C(F)(C(F)(F)F)C(F)(F)F)cc(C)c1NC(=O)c1cccc(NC(=O)c2ccccc2)c1F` [Compound No. 601, N-(2,6-dimethyl-4-heptafluoroisopropyl)phenyl 3-(benzoylamino)-2-fluorobenzamide], the “Number of insects (number/100 stumps)” value in series [1] was 2 number/100 stumps. Further, in [2] (10 ppm), the “Sphaerotheca fuliginea Control value” came to 0. The “Plasmodiophora brassicae Control value” in series [3] (100 gai/10a) is given as 0. The “Grapholita molesta Infected fruit rate (%)” value in series [4] (50 ppm) was 2.3%. Further, the “Venturia nashicola Severity index” value in series [5] (50 ppm) amounted to 53.0. Also, in series [6], the “Pyricularia oryzae Control value” is reported as 7. The “Agrotis segetum Infected stump rate (%)” value in [7] (100 gai/10a) is 2.8%. Further, in series [8], the “Rate of infected stumps (%)” value turned out to be 96%. Further, the “Diaphania indica Mortality (%)” value in [9] was 95%. The “Number (insects/100 stumps)” value in [10] was 1 insects/100 stumps.
For `Cc1cc(C(F)(C(F)(F)F)C(F)(F)F)cc(C)c1NC(=O)c1cccc(N(C)C(=O)c2ccccc2)c1F` [Compound 1208], the “Mortality (%)” value in [11] is 75%; in [13] it was 10%. Further, the “Control rate (%)” value in series [12] is 18%; in series [14], 20%. For the same compound, the “Number of insects (number/100 stumps)” value in series [1] is 1 number/100 stumps. For the same compound, in series [2] (10 ppm), the “Sphaerotheca fuliginea Control value” is 0. Moreover, the “Plasmodiophora brassicae Control value” in [3] (100 gai/10a) is reported as 9. Also, the “Grapholita molesta Infected fruit rate (%)” value in series [4] (50 ppm) turned out to be 1.9%. In addition, in [5] (50 ppm), the “Venturia nashicola Severity index” value came to 52.4. The “Pyricularia oryzae Control value” in series [6] was 5. The “Agrotis segetum Infected stump rate (%)” value in [7] (100 gai/10a) is listed as 2.8%. The “Rate of infected stumps (%)” value in [8] amounted to 99%. The “Diaphania indica Mortality (%)” value in series [9] worked out at 95%. For the same compound, the “Number (insects/100 stumps)” value in series [10] stood at 1 insects/100 stumps. Besides, the “Hatchability of larvae (%)” value in series [15] worked out at 78%.
Regarding `O=[N+]([O-])c1ccc(NS(=O)(=O)c2ccc(Cl)c(C(F)(F)F)c2)c(Cl)c1` [flusulfamide], the “Plasmodiophora brassicae Control value” in [3] (60 gai/10a) stood at 91. In addition, in series [7] (60 gai/10a), the “Agrotis segetum Infected stump rate (%)” value is reported as 36.1%.
As for `CCCc1cc(C(F)(C(F)(F)F)C(F)(F)F)cc(Br)c1NC(=O)c1cccc(NC(=O)c2ccccc2)c1` [Compound 178], the “Sphaerotheca fuliginea Control value” in series [2] (10 ppm) is 0. In addition, in [3] (100 gai/10a), the “Plasmodiophora brassicae Control value” worked out at 5. The “Grapholita molesta Infected fruit rate (%)” value in series [4] (50 ppm) is 3.4%. In series [5] (50 ppm), the “Venturia nashicola Severity index” value was 51.5. For the same compound, in [7] (100 gai/10a), the “Agrotis segetum Infected stump rate (%)” value was found to be 5.6%. In addition, in [9], the “Diaphania indica Mortality (%)” value came out at 90%.
Turning to `CC(C)CC(C)c1sccc1NC(=O)c1cn(C)nc1C(F)(F)F` (stereo not shown) [penthiopyrad], in series [2] (3.15 ppm), the “Sphaerotheca fuliginea Control value” amounted to 95. Besides, in series [4] (75 ppm), the “Grapholita molesta Infected fruit rate (%)” value worked out at 19.8%. The “Venturia nashicola Severity index” value in [5] (75 ppm) came to 3.7. Further, in [9] (Diaphania indica, 3.15 ppm), the mortality (in general, the percentage killed) at 3.15 ppm was found to be 0%.
With `O=C(Nc1cccc(C(=O)Nc2c(Br)cc(C(F)(C(F)(F)F)C(F)(F)F)cc2SC(F)(F)F)c1)c1ccccc1` [Compound 210], the “Mortality (%)” value is recorded as 70% in series [11] and 15% in series [13]. In addition, the “Control rate (%)” value in series [12] is listed as 12%; in [14], 7%. The “Number of insects (number/100 stumps)” value in series [1] was 1 number/100 stumps. In addition, in [2] (10 ppm), the “Sphaerotheca fuliginea Control value” is on record as 0. Further, the “Plasmodiophora brassicae Control value” in series [3] (100 gai/10a) is 0. Also, in series [4] (50 ppm), the “Grapholita molesta Infected fruit rate (%)” value is recorded as 1.7%. The “Venturia nashicola Severity index” value in series [5] (50 ppm) amounted to 50.6. The “Pyricularia oryzae Control value” in series [6] is reported as 3. Further, the “Agrotis segetum Infected stump rate (%)” value in [7] (100 gai/10a) is 2.8%. In addition, the “Rate of infected stumps (%)” value in [8] is reported as 98%. Further, in series [9], the “Diaphania indica Mortality (%)” value stood at 95%. Besides, in series [10], the “Number (insects/100 stumps)” value was 1 insects/100 stumps. For the same compound, in series [15], the “Hatchability of larvae (%)” value was 80%.
